Assay results as given in the supplement of paper PMC10307832.

Assays:
Assay in all cases: relative viability (nuclei count vs DMSO), 5 days (fraction); higher = more cells survive
KN-93 + Bortezomib = compound: CN(C/C=C/C1=CC=C(C=C1)Cl)CC2=CC=CC=C2N(CCO)S(=O)(=O)C3=CC=C(C=C3)OC [KN-93] + CC(C)C[C@H](NC(=O)[C@H](Cc1ccccc1)NC(=O)c1cnccn1)B(O)O [Bortezomib] (partner 0.002 µM)
Method in brief: (§1)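 Values are medians from duplicate plates. Each reflects relative viability, defined as the nuclei count of treated wells over that of vehicle wells. Lung cancer cell lines in 1536-well plates were pin-tool dosed one day after seeding with one drug alone or with a fixed anchor-drug dose plus five library-drug doses (not always all listed) in √10 steps, then fixed, stained and imaged at 4× after 5 days.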

KN-93 + AZD7762 = compound: CN(C/C=C/C1=CC=C(C=C1)Cl)CC2=CC=CC=C2N(CCO)S(=O)(=O)C3=CC=C(C=C3)OC [KN-93] + NC(=O)Nc1cc(-c2cccc(F)c2)sc1C(=O)N[C@H]1CCCNC1 [AZD7762] (partner 0.2 µM)
Method in brief: as §1

KN-93 + Phenformin = compound: CN(C/C=C/C1=CC=C(C=C1)Cl)CC2=CC=CC=C2N(CCO)S(=O)(=O)C3=CC=C(C=C3)OC [KN-93] + N=C(N)NC(=N)NCCc1ccccc1 [Phenformin] (partner 250 µM)
Method in brief: as §1

KN-93 + Decitabine = compound: CN(C/C=C/C1=CC=C(C=C1)Cl)CC2=CC=CC=C2N(CCO)S(=O)(=O)C3=CC=C(C=C3)OC [KN-93] + Nc1ncn([C@H]2C[C@H](O)[C@@H](CO)O2)c(=O)n1 [Decitabine] (partner 2 µM)
Method in brief: as §1

KN-93 + Linsitinib = compound: CN(C/C=C/C1=CC=C(C=C1)Cl)CC2=CC=CC=C2N(CCO)S(=O)(=O)C3=CC=C(C=C3)OC [KN-93] + C[C@]1(O)C[C@@H](c2nc(-c3ccc4ccc(-c5ccccc5)nc4c3)c3c(N)nccn32)C1 [Linsitinib] (partner 1 µM)
Method in brief: as §1

Cell Line | relative viability (KN-93 + Bortezomib; first compound 0.08 µM) | relative viability (KN-93 + Bortezomib; first compound 0.253 µM) | relative viability (KN-93 + Bortezomib; first compound 8 µM) | relative viability (KN-93 + AZD7762; first compound 0.08 µM) | relative viability (KN-93 + AZD7762; first compound 0.253 µM) | relative viability (KN-93 + AZD7762; first compound 2.53 µM) | relative viability (KN-93 + AZD7762; first compound 8 µM) | relative viability (KN-93 + Phenformin; first compound 0.08 µM) | relative viability (KN-93 + Phenformin; first compound 0.253 µM) | relative viability (KN-93 + Phenformin; first compound 2.53 µM) | relative viability (KN-93 + Phenformin; first compound 8 µM) | relative viability (KN-93 + Decitabine; first compound 0.08 µM) | relative viability (KN-93 + Decitabine; first compound 0.253 µM) | relative viability (KN-93 + Decitabine; first compound 2.53 µM) | relative viability (KN-93 + Decitabine; first compound 8 µM) | relative viability (KN-93 + Linsitinib; first compound 0.08 µM) | relative viability (KN-93 + Linsitinib; first compound 0.253 µM) | relative viability (KN-93 + Linsitinib; first compound 2.53 µM) | relative viability (KN-93 + Linsitinib; first compound 8 µM) | relative viability (KN-93 + Bortezomib; first compound 2.53 µM)
NCI-H460 | 0.813 | 1.93 | 0.717 | 0.563 | 0.556 | 0.731 | 0.328 | 0.299 | 0.565 | 0.552 | 0.396 | 0.282 | 0.409 | 0.579 | 0.46 | 0.466 | 1.14 | 0.805 | 0.375 | –
NCI-H596 | 1.02 | 1.29 | 0.942 | 1 | 1.08 | 1.11 | 0.845 | 0.728 | 0.95 | 0.69 | 0.45 | 1.03 | 1.19 | 1.08 | 0.824 | 1 | 1.19 | 1.03 | 0.89 | 1.18
NCI-H647 | 0.712 | 1.16 | 0.986 | 0.398 | 0.557 | 0.447 | 0.381 | 0.696 | 0.552 | 0.643 | 0.484 | 0.373 | 0.487 | 0.444 | 0.409 | 1.33 | 1.5 | 1.65 | 0.952 | 1.63
NCI-H650 | 0.959 | 0.915 | 0.454 | 0.984 | 0.996 | 1.23 | 0.978 | 0.481 | 0.47 | 0.449 | 0.414 | 0.325 | 0.272 | 0.302 | 0.311 | 0.893 | 0.836 | 1.21 | 0.562 | 1.25
NCI-H727 | 0.66 | 0.853 | 0.391 | 0.643 | – | 0.627 | 0.471 | 0.576 | 0.601 | 0.814 | 0.533 | 0.795 | – | 0.816 | 0.827 | 0.292 | 0.223 | 0.256 | 0.223 | 0.785
NCI-H838 | 0.735 | 0.919 | 0.796 | 0.842 | 0.884 | 0.992 | 0.831 | 0.648 | 0.565 | 0.596 | 0.547 | 0.436 | 0.455 | 0.487 | 0.427 | 0.989 | 0.905 | 1.15 | 0.771 | 1.16
NCI-H1355 | 1.11 | 1.11 | 0.895 | 0.822 | 0.694 | 0.826 | 0.703 | 0.497 | 0.456 | 0.438 | 0.427 | 0.367 | 0.298 | 0.317 | 0.315 | 0.732 | 0.769 | 0.805 | 0.699 | 1.3
NCI-H1437 | 0.465 | 0.564 | 0.365 | 1.16 | 1.29 | 1.24 | 0.654 | 0.396 | 0.292 | 0.352 | 0.31 | 0.519 | 0.768 | 0.533 | 0.405 | 0.879 | 1.41 | 1.04 | 0.487 | 0.53
NCI-H1651 | 0.976 | 1.03 | 0.805 | 0.394 | 0.505 | 0.526 | 0.353 | 0.369 | 0.44 | 0.369 | 0.321 | 0.594 | 0.597 | 0.623 | 0.534 | 0.816 | 1.33 | 1.11 | 0.622 | 0.987
NCI-H1666 | 0.753 | 0.669 | 0.607 | 0.863 | 0.874 | 0.802 | 0.788 | 0.611 | 0.772 | 0.656 | 0.576 | 0.705 | 0.716 | 0.783 | 0.748 | 0.837 | 0.672 | 1.11 | 0.588 | 0.945
NCI-H1734 | 0.941 | 0.902 | 0.566 | 0.465 | 0.627 | 0.597 | 0.441 | 0.363 | 0.446 | 0.381 | 0.411 | 0.465 | 0.596 | 0.502 | 0.442 | 0.855 | 0.949 | 1.03 | 0.734 | 1.1
NCI-H1755 | 0.923 | 1.07 | 0.546 | 0.392 | 0.411 | 0.444 | 0.407 | 0.699 | 0.608 | 0.674 | 0.605 | 0.752 | 0.723 | 0.696 | 0.703 | 1.01 | 1.05 | 1.05 | 0.837 | 0.967
NCI-H1792 | – | 0.923 | 0.781 | 0.583 | 0.504 | 0.683 | 0.353 | 0.177 | – | 0.25 | 0.258 | 0.278 | 0.489 | 0.602 | 0.535 | – | 0.573 | 0.567 | 0.394 | 1.04
